# Results reported in US20240002438A1, “MELANOCORTIN LIGANDS AND METHODS OF USE THEREOF” (REGENTS OF THE UNIVERSITY OF MINNESOTA, priority 2021, published 2024).
# Like-named read-outs stand apart in the source and are kept apart here. Where a SMILES comes first, the peptide text is derived from it. [ ]: non-standard residue; d: D form. dPhe(4-I) = N[C@H](Cc1ccc(I)cc1)C(=O)O; 2Nal = N[C@@H](Cc1ccc2ccccc2c1)C(=O)O; d2Nal = N[C@H](Cc1ccc2ccccc2c1)C(=O)O
# Legend:
# mMC4R [1] = target: T1, mMC4R (Mus musculus, UniProt P56450); experiment: cAMP AlphaScreen antagonist assay at mMC4R, NDP-MSH as agonist, HEK293 cells; conditions: NDP-MSH as agonist; HEK293 cells stably expressing mMC4R
# Target sequence in this assay (P56450 whole entry): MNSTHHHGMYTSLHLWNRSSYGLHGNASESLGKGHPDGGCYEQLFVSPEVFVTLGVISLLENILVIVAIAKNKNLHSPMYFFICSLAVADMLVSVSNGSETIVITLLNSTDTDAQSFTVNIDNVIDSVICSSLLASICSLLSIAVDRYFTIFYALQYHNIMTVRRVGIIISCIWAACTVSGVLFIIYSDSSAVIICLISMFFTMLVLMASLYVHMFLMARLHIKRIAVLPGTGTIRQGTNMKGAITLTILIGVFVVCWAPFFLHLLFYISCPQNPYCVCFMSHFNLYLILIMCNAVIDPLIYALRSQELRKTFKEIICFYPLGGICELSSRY
# Description: (§4) Following stimulation, streptavidin donor beads (0.5 μg) and biotinylated-cAMP (0.62 μmol) were added to the wells in a green light environment with 10 μL of lysis buffer (5 mM HEPES, 0.3% Tween-20, 0.1% BSA, pH=7.4) and the plates were incubated in the dark at room temperature for an additional 2 h. Plates were read on a Enspire (PerkinElmer) Alpha-plate reader using a pre-normalized assay protocol (set by the manufacturer).
# mMC5R = mMC5R (Mus musculus, UniProt P41149); experiment: cAMP AlphaScreen agonist assay at mMC5R, HEK293 cells; conditions: for mMC5R agonist activity: up to 100 μM; for mMC5R partial stimulation, % of the maximal NDP-MSH signal: 100 μM
# Description: as §4
# mMC4R [2] = target: T1, mMC4R; experiment: mMC4R | Antagonist Potency Ki (nM); set-up: expressed in transfected cells; host or cells: HEK293
# Source text: (§1) Table printed on a drawing sheet, FIGURE 18
# (§2) Title: Tetrapeptide Antagonist Pharmacology at the Mouse Melanocortin Receptors.^a
# Head of the field: mMC4R | Antagonist Potency Ki (nM)
# (§3) First copying reader's note: Columns 4 and 7 are empty spacer columns as printed; the table runs off the bottom of the sheet (continued on the next sheet) and footnotes a and b are not printed here.
# Target sequence in this assay (P56450 whole entry, looked up): as the sequence (P56450 whole entry) above
# mMC3R [3] = target: T2, mMC3R (Mus musculus, UniProt P33033); experiment: mMC3R | Antagonist Potency Ki (nM); set-up: expressed in transfected cells; host or cells: HEK293
# Source text: as §1, §2
# Target sequence in this assay (P33033 whole entry, looked up): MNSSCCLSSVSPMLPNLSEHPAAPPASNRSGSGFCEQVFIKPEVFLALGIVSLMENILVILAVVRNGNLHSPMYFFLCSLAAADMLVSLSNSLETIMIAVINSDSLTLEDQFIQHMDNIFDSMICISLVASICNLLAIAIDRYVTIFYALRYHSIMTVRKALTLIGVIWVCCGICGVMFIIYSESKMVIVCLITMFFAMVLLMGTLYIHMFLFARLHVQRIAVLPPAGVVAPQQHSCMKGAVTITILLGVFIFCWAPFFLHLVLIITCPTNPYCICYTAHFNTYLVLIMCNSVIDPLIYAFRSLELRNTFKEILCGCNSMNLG
# Head of the field: mMC3R | Antagonist Potency Ki (nM)
# as §3
# mMC3R [4] = target: T2, mMC3R; experiment: cAMP AlphaScreen antagonist assay at mMC3R, NDP-MSH as agonist, HEK293 cells; conditions: for mMC3R antagonist activity: at the concentrations assayed; for mMC3R antagonist pA2: NDP-MSH as agonist, HEK293 cells stably expressing mMC3R
# Target sequence in this assay (P33033 whole entry): as the sequence (P33033 whole entry, looked up) above
# mMC1R [5] = target: T3, mMC1R (Mus musculus, UniProt Q01727); experiment: cell-based
# Description: as §4
# mMC1R [6] = target: T3, mMC1R; conditions: up to 100 μM
# Description: as §4
# Sequence of mMC5R (P41149 whole entry): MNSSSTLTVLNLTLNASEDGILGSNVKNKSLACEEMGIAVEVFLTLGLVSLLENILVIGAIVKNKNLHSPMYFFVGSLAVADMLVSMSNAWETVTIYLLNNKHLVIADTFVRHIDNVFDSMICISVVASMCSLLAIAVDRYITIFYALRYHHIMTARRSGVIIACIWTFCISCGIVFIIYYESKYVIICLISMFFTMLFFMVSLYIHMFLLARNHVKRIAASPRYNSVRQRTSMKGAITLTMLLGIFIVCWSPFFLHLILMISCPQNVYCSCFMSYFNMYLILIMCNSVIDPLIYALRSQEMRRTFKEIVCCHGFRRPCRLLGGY
# T3 sequence (Q01727 whole entry): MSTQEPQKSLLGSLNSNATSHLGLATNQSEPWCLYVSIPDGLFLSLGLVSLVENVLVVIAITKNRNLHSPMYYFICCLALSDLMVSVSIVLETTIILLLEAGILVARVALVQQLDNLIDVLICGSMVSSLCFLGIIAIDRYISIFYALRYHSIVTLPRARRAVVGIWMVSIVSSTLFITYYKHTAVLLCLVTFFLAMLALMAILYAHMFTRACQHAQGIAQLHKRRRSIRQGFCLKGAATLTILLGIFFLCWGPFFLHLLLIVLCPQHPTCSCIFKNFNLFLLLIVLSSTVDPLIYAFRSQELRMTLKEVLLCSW
molecule,measurement,setting,value
Ac-DPhe(pI)-DNal(2′)-Trp-Arg-NH2 [compound 30],mMC4R antagonist pA2,mMC4R [1],5.6
same,mMC5R agonist activity,mMC5R,inactive
"CC(=O)N[C@H](Cc1ccc2ccccc2c1)C(=O)N[C@@H](CCCNC(=N)N)C(=O)N[C@@H](Cc1c[nH]c2ccccc12)C(=O)N[C@H](CCCCN)C(N)=O [16 | COR1-29-6, Ac-DNal(2’)-Arg-Trp-DLys-NH2] (Ac-[d2Nal]RW[dK]-NH2)",Ki,mMC4R [2],20 nM
same,Ki,mMC3R [3],3200 nM
"CC(=O)N[C@H](Cc1ccc2ccccc2c1)C(=O)N[C@@H](CCCNC(=N)N)C(=O)N[C@H](Cc1ccc2ccccc2c1)C(=O)N[C@H](CCCCN)C(N)=O [13 | COR1-29-5, Ac-DNal(2’)-Arg-DNal(2’)-DLys-NH2] (Ac-[d2Nal]R[d2Nal][dK]-NH2)",Ki,mMC4R [2],6.3 nM
same,Ki,mMC3R [3],1000 nM
Ac-[d2Nal][d2Nal]WR-NH2 [compound 6],"mMC5R partial stimulation, % of the maximal NDP-MSH signal",mMC5R,45%
Ac-DNal(2′)-DNal(2′)-Nal(2′)-Arg-NH2 [compound 12],"mMC5R partial stimulation, % of the maximal NDP-MSH signal",mMC5R,40%
"CC(=O)N[C@H](Cc1ccc2ccccc2c1)C(=O)N[C@@H](CCCNC(=N)N)C(=O)N[C@H](Cc1ccc(I)cc1)C(=O)N[C@H](Cc1ccc2ccccc2c1)C(N)=O [20 | COR2-15, Ac-DNal(2’)-Arg-DPhe(pI)-DNal(2’)-NH2] (Ac-[d2Nal]R[dPhe(4-I)][d2Nal]-NH2)",Ki,mMC4R [2],320 nM
same,Ki,mMC3R [3],790 nM
"CC(=O)N[C@H](Cc1ccc(I)cc1)C(=O)N[C@H](Cc1ccc2ccccc2c1)C(=O)N[C@@H](Cc1ccc2ccccc2c1)C(=O)N[C@@H](CCCNC(=N)N)C(N)=O [compound 36, Ac-DPhe(pI)-DNal(2′)-Nal(2′)-Arg-NH2] (Ac-[dPhe(4-I)][d2Nal][2Nal]R-NH2)",mMC3R antagonist activity,mMC3R [4],did not act as antagonists
same,mMC4R antagonist pA2,mMC4R [1],5.8
same,EC50,mMC5R,30 to 800 nM
same,mMC5R agonist activity,mMC5R,full mMC5R agonists
Ac-DNal(2′)-DNal(2′)-Trp-DLys-NH2 [compound 4],mMC3R antagonist pA2,mMC3R [4],5.8
"CC(=O)N[C@H](Cc1ccc2ccccc2c1)C(=O)N[C@@H](CCCNC(=N)N)C(=O)N[C@H](Cc1ccc2ccccc2c1)C(=O)N[C@@H](CCCNC(=N)N)C(N)=O [compound 15, Ac-DNal(2′)-Arg-DNal(2′)-Arg-NH2] (Ac-[d2Nal]R[d2Nal]R-NH2)",EC50,mMC1R [5],400 to 7900 nM
"CC(=O)N[C@H](Cc1ccc2ccccc2c1)C(=O)N[C@H](Cc1ccc2ccccc2c1)C(=O)N[C@H](Cc1ccc2ccccc2c1)C(=O)N[C@@H](CCCNC(=N)N)C(N)=O [compound 3, Ac-DNal(2′)-DNal(2′)-DNal(2′)-Arg-NH2] (Ac-[d2Nal][d2Nal][d2Nal]R-NH2)",mMC3R antagonist activity,mMC3R [4],did not act as antagonists
same,EC50,mMC5R,30 to 800 nM
same,EC50,mMC5R; read-out: mMC5R agonist EC50,130 nM
same,mMC5R agonist activity,mMC5R,full mMC5R agonists
"CC(=O)N[C@H](Cc1ccc(I)cc1)C(=O)N[C@H](Cc1ccc2ccccc2c1)C(=O)N[C@H](Cc1ccc2ccccc2c1)C(=O)N[C@H](CCCCN)C(N)=O [25 | COR1-80, Ac-DPhe(pI)-DNal(2’)-DNal(2’)-DLys-NH2] (Ac-[dPhe(4-I)][d2Nal][d2Nal][dK]-NH2)",Ki,mMC4R [2],500 nM
Ac-DPhe(pI)-DNal(2′)-Nal(2′)-DLys-NH2 [compound 34],"mMC5R partial stimulation, % of the maximal NDP-MSH signal",mMC5R,50%
"CC(=O)N[C@H](Cc1ccc2ccccc2c1)C(=O)N[C@@H](CCCNC(=N)N)C(=O)N[C@H](Cc1ccc(I)cc1)C(=O)N[C@@H](CCCNC(=N)N)C(N)=O [21 | COR2-105, Ac-DNal(2’)-Arg-DPhe(pI)-Arg-NH2] (Ac-[d2Nal]R[dPhe(4-I)]R-NH2)",Ki,mMC4R [2],2.5 nM
same,Ki,mMC3R [3],79 nM
"CC(=O)N[C@H](Cc1ccc(I)cc1)C(=O)N[C@H](Cc1ccc2ccccc2c1)C(=O)N[C@H](Cc1ccc2ccccc2c1)C(=O)N[C@@H](CCCNC(=N)N)C(N)=O [compound 27, Ac-DPhe(pI)-DNal(2′)-DNal(2′)-Arg-NH2] (Ac-[dPhe(4-I)][d2Nal][d2Nal]R-NH2)",mMC3R antagonist activity,mMC3R [4],did not act as antagonists
same,mMC5R agonist activity,mMC5R,full mMC5R agonists
Ac-DNal(2′)-Arg-DPhe(pI)-Arg-NH2 [compound 21],mMC1R agonist activity,mMC1R [6],full agonist activity
"CC(=O)N[C@H](Cc1ccc2ccccc2c1)C(=O)N[C@@H](CCCNC(=N)N)C(=O)N[C@H](Cc1ccc2ccccc2c1)C(=O)N[C@H](CCCCN)C(N)=O [compound 13, Ac-DNal(2′)-Arg-DNal(2′)-DLys-NH2] (Ac-[d2Nal]R[d2Nal][dK]-NH2)",EC50,mMC1R [5],400 to 7900 nM
"CC(=O)N[C@H](Cc1ccc2ccccc2c1)C(=O)N[C@@H](CCCNC(=N)N)C(=O)N[C@@H](Cc1c[nH]c2ccccc12)C(=O)N[C@@H](CCCNC(=N)N)C(N)=O [18 | MDE10-27, Ac-DNal(2’)-Arg-Trp-Arg-NH2] (Ac-[d2Nal]RWR-NH2)",Ki,mMC4R [2],5 nM
same,Ki,mMC3R [3],160 nM
Ac-DNal(2′)-Arg-DPhe(pI)-DLys-NH2 [compound 19],mMC1R agonist activity,mMC1R [6],full agonist activity
Ac-DPhe(pI)-DNal(2′)-Trp-DLys-NH2 [compound 28],mMC3R antagonist pA2,mMC3R [4],5.7
same,mMC4R antagonist pA2,mMC4R [1],6.6
"CC(=O)N[C@H](Cc1ccc2ccccc2c1)C(=O)N[C@H](Cc1ccc2ccccc2c1)C(=O)N[C@H](Cc1ccc(I)cc1)C(=O)N[C@@H](CCCNC(=N)N)C(N)=O [compound 9, Ac-DNal(2′)-DNal(2′)-DPhe(pI)-Arg-NH2] (Ac-[d2Nal][d2Nal][dPhe(4-I)]R-NH2)",mMC3R antagonist activity,mMC3R [4],did not act as antagonists
same,EC50,mMC5R,30 to 800 nM
same,EC50,mMC5R; read-out: mMC5R agonist EC50,30 nM
same,mMC5R agonist activity,mMC5R,full mMC5R agonists
Ac-DPhe(pI)-Arg-DPhe(pI)-Arg-NH2 [compound 45],mMC1R agonist activity,mMC1R [6],full agonist activity
"CC(=O)N[C@H](Cc1ccc2ccccc2c1)C(=O)N[C@@H](CCCNC(=N)N)C(=O)N[C@@H](Cc1c[nH]c2ccccc12)C(=O)N[C@H](Cc1ccc2ccccc2c1)C(N)=O [17 | COR1-60, Ac-DNal(2’)-Arg-Trp-DNal(2’)-NH2] (Ac-[d2Nal]RW[d2Nal]-NH2)",Ki,mMC4R [2],100 nM
same,Ki,mMC3R [3],2000 nM
"CC(=O)N[C@H](Cc1ccc2ccccc2c1)C(=O)N[C@@H](CCCNC(=N)N)C(=O)N[C@H](Cc1ccc2ccccc2c1)C(=O)N[C@@H](CCCNC(=N)N)C(N)=O [15 | COR2-93, Ac-DNal(2’)-Arg-DNal(2’)-Arg-NH2] (Ac-[d2Nal]R[d2Nal]R-NH2)",Ki,mMC4R [2],5 nM
same,Ki,mMC3R [3],790 nM
"CC(=O)N[C@H](Cc1ccc2ccccc2c1)C(=O)N[C@@H](CCCNC(=N)N)C(=O)N[C@@H](Cc1ccc2ccccc2c1)C(=O)N[C@@H](CCCNC(=N)N)C(N)=O [24 | MDE10-28, Ac-DNal(2’)-Arg-Nal(2’)-Arg-NH2] (Ac-[d2Nal]R[2Nal]R-NH2)",Ki,mMC4R [2],1.6 nM
same,Ki,mMC3R [3],100 nM
"CC(=O)N[C@H](Cc1ccc2ccccc2c1)C(=O)N[C@@H](CCCNC(=N)N)C(=O)N[C@@H](Cc1ccc2ccccc2c1)C(=O)N[C@H](Cc1ccc2ccccc2c1)C(N)=O [23 | COR2-33, Ac-DNal(2’)-Arg-Nal(2’)-DNal(2’)-NH2] (Ac-[d2Nal]R[2Nal][d2Nal]-NH2)",Ki,mMC4R [2],200 nM
"CC(=O)N[C@H](Cc1ccc2ccccc2c1)C(=O)N[C@@H](CCCNC(=N)N)C(=O)N[C@H](Cc1ccc2ccccc2c1)C(=O)N[C@H](Cc1ccc2ccccc2c1)C(N)=O [14 | COR2-57, Ac-DNal(2’)-Arg-DNal(2’)-DNal(2’)-NH2] (Ac-[d2Nal]R[d2Nal][d2Nal]-NH2)",Ki,mMC4R [2],500 nM
same,Ki,mMC3R [3],2000 nM
"CC(=O)N[C@H](Cc1ccc2ccccc2c1)C(=O)N[C@@H](CCCNC(=N)N)C(=O)N[C@@H](Cc1ccc2ccccc2c1)C(=O)N[C@H](CCCCN)C(N)=O [22 | COR1-29-8, Ac-DNal(2’)-Arg-Nal(2’)-DLys-NH2] (Ac-[d2Nal]R[2Nal][dK]-NH2)",Ki,mMC4R [2],16 nM
same,Ki,mMC3R [3],630 nM
Ac-DPhe(pI)-Arg-DPhe(pI)-DLys-NH2 [compound 43],mMC1R agonist activity,mMC1R [6],full agonist activity
"CC(=O)N[C@H](Cc1ccc2ccccc2c1)C(=O)N[C@H](Cc1ccc2ccccc2c1)C(=O)N[C@@H](Cc1c[nH]c2ccccc12)C(=O)N[C@H](CCCCN)C(N)=O [4 | COR1-29-2, Ac-DNal(2’)-DNal(2’)-Trp-DLys-NH2] (Ac-[d2Nal][d2Nal]W[dK]-NH2)",Ki,mMC4R [2],200 nM
same,Ki,mMC3R [3],1600 nM
Ac-[d2Nal]R[2Nal]R-NH2 [compound 24],mMC4R antagonist pA2,mMC4R [1],8.8
"CC(=O)N[C@H](Cc1ccc2ccccc2c1)C(=O)N[C@@H](CCCNC(=N)N)C(=O)N[C@H](Cc1ccc(I)cc1)C(=O)N[C@H](CCCCN)C(N)=O [19 | COR1-29-7, Ac-DNal(2’)-Arg-DPhe(pI)-DLys-NH2]",Ki,mMC4R [2],3.2 nM
same,Ki,mMC3R [3],130 nM
CC(=O)N[C@H](Cc1ccc2ccccc2c1)C(=O)N[C@@H](CCCNC(=N)N)C(=O)N[C@H](Cc1ccc2ccccc2c1)C(=O)N[C@H](Cc1ccc2ccccc2c1)C(N)=O [compound 14] (Ac-[d2Nal]R[d2Nal][d2Nal]-NH2),EC50,mMC1R [5],400 to 7900 nM
Ac-[dPhe(4-I)]RW[dK]-NH2 [compound 40],mMC4R antagonist pA2,mMC4R [1],7.6
Ac-DPhe(pI)-DNal(2′)-DNal(2′)-DLys-NH2 [compound 25],mMC4R antagonist pA2,mMC4R [1],6.3
Ac-[d2Nal]RW[dK]-NH2 [compound 16],mMC4R antagonist pA2,mMC4R [1],7.7
